Source: patent US8173695B2, “Kappa selective opioid receptor antagonist” (Eli Lilly and Company, priority 2008, dated 2012)
Several values for one entry are separate records, joined by “and”; a condition that tells them apart may be missing. Equal entries are not always repeated.

Experiments:
Male Fischer F-344 rats = assay: Stress-induced hyperthermia (in rat); format: in vivo; conditions: for stress-induced hyperthermia (T2−T1): in °C
Male NIH-Swiss mice = assay: Mouse forced swim test; format: in vivo; conditions: for immobility in mouse forced swim test, Mean: 30 min
Text: This test evaluates the effect of test compound on mice mobility as a measure of antidepressant effect. The less immobility compared to vehicle, the more pronounced the antidepressant-like effect.
Male, NIH-Swiss mice (25-30 g) (Harlan Sprague-Dawley, Indianapolis, Ind., USA) are housed in a vivarium for at least one week prior to use with water and rodent chow freely available during this acclimation period. Animals are removed from the vivarium to the testing area in their home cages and allowed to adapt to the new environment for at least one hour before testing.
Mice are placed in clear plastic cylinders (diameter: 10 cm; height: 25 cm) filled with 6 cm of water (22-25° C.) for six minutes. The duration of immobility during the last four minutes of the six minutes test period is scored. A mouse is recorded as immobile when floating motionless or making only those movements necessary to keep its head above water.
The test compound is administered p.o. 1 hour prior to testing at 1.0 mg/kg, 3.0 mg/kg and 10.0 mg/kg, n of 8 per group in a vehicle of 5 ml of sterile water and 30 ml of diluted (10×) lactic acid. Imipramine is evaluated as a positive control, 15 mg/kg: p, 30 min. prior to testing n of 4.
A second study is carried out evaluating 1 and 3 mg/kg doses of the compound of Example 1A alone and in combination with 5 mg/kg of imipramine. Imipramine alone is evaluated at 5 and 15 mg/kg doses and a vehicle control is included in the study. For the combination studies, the compound of Example 1A is administered p.o. 30 minutes prior to administration of imipramine i.p. and the test initiated 30 minutes following imipramine administration. An n of 8 per group is evaluated for all groups. For the evaluations of the compound of Example 1A alone, testing is initiated 60 minutes following administration and testing of imipramine only treated animals is initiated 30 minutes following administration.

Sprague Dawley rats = assay: Prepulse inhibition, reversal of morphine induced disruption of PPI; format: in vivo, rat; conditions: vehicle/20 mg/kg morphine sc; 20 mg/kg
[1] = Study 1, positive control 10 mg/kg

## CNC1=Nc2ccc(Cl)cc2C(c2ccccc2)=[N+]([O-])C1 [CDP, chlordiazepoxide, reference compound]
Male Fischer F-344 rats; Study 2, 1 mg/kg CDP alone, po
  stress-induced hyperthermia (T2−T1): 0.75±0.06

## CN(C)CCCN1c2ccccc2CCc2ccccc21 [Imipramine, imipramine, reference compound]
Male NIH-Swiss mice; Imipramine 5 mg/kg i.p.
  immobility in mouse forced swim test, Mean: 161.94 s
Male NIH-Swiss mice; Imipramine 15 mg/kg i.p.
  immobility in mouse forced swim test, Mean: 61.70 s
Male NIH-Swiss mice; imipramine 15 mg/kg, over vehicle control, p<0.05
  antidepressant effect, in words: statistically significant antidepressant effect

## Cc1nc(C#Cc2cccnc2)cs1 [MTEP, 3-[(2-methyl-1,3-thiazol-4-yl)ethynyl]pyridine, reference compound]
Male Fischer F-344 rats; [1]
  baseline body temperatures: without affecting
  stress-induced hyperthermia (T2−T1): 0.42±0.09
Male Fischer F-344 rats; Study 1, positive control 10 mg/kg, p<0.05
  reduction in stress-induced hyperthermia, in words: significantly reduces

## CN1CC[C@]23c4c5ccc(O)c4O[C@H]2[C@@H](O)C=C[C@H]3[C@H]1C5 [morphine, reference compound]
Sprague Dawley rats
  % Inhibition (PPI), individual rats: 26.99% and −12.64% and 34.65% and 32.59% and 5.49% and 49.11% and 53.95% and 44.81% and 35.01% and −9.49% and 51.85% and 24.04% and 4.72% and 50.03%
